The results in this text go back to BindingDB's records for doi:10.1021/jm950922q (University of North Carolina at Chapel Hill, 1996).

A value given as a limit tells only on which side of the number the result lay.

This assay addresses HIV-RT (HIV reverse transcriptase). Description: Inhibitory activity against HIV-RT.
What is called IC50 is the concentration that inhibits the measured activity by half. The low end stands for inhibition by little substance, the high end for a need for much substance. `C=C(C)[C@@H]1CC[C@]2(C(=O)O)CC[C@]3(C)[C@H](CC[C@@H]4[C@@]5(C)CC[C@H](O)C(C)(C)[C@@H]5CC[C@]43C)[C@@H]12` came in with a half-maximal inhibitory concentration (IC50) above 219 µM.

The compound `CC(C)[C@@H]1CC[C@]2(C(=O)O)CC[C@]3(C)[C@H](CC[C@@H]4[C@@]5(C)CC[C@H](OC(=O)CC(C)(C)C(=O)O)C(C)(C)[C@@H]5CC[C@]43C)[C@@H]12` [2,2-Dimethyl-succinic acid 4-((1S,3aS,5aR,5bR,7aR,9S,11aR,11bR,13aR,13bR)-3a-carboxy-1-isopropyl-5a,5b,8,8,11a-pentamethyl-icosahydro-cyclopenta[a]chrysen-9-yl) ester] had a half-inhibitory concentration (IC50) above 171 µM.

Consider `C=C(C)[C@@H]1CC[C@]2(C(=O)O)CC[C@]3(C)[C@H](CC[C@@H]4[C@@]5(C)CC[C@H](OC(=O)CC(C)(C)CC(=O)O)C(C)(C)[C@@H]5CC[C@]43C)[C@@H]12` [3,3-Dimethyl-pentanedioic acid mono-((1R,3aS,5aR,5bR,7aR,9S,11aR,11bR,13aR,13bR)-3a-carboxy-1-isopropenyl-5a,5b,8,8,11a-pentamethyl-icosahydro-cyclopenta[a]chrysen-9-yl) ester], for which the IC50 is above 167 µM.

Consider `CC(C)[C@@H]1CC[C@]2(C(=O)O)CC[C@]3(C)[C@H](CC[C@@H]4[C@@]5(C)CC[C@H](OC(=O)CC(C)(C)CC(=O)O)C(C)(C)[C@@H]5CC[C@]43C)[C@@H]12` [3,3-Dimethyl-pentanedioic acid mono-((1S,3aS,5aR,5bR,7aR,9S,11aR,11bR,13aR,13bR)-3a-carboxy-1-isopropyl-5a,5b,8,8,11a-pentamethyl-icosahydro-cyclopenta[a]chrysen-9-yl) ester], for which the IC50 is above 167 µM.

Consider `C=C(C)[C@@H]1CC[C@]2(C(=O)O)CC[C@]3(C)[C@H](CC[C@@H]4[C@@]5(C)CC[C@H](OC(=O)COCC(=O)O)C(C)(C)[C@@H]5CC[C@]43C)[C@@H]12` [(1R,3aS,5aR,5bR,7aR,9S,11aR,11bR,13aR,13bR)-9-(2-Carboxymethoxy-acetoxy)-1-isopropenyl-5a,5b,8,8,11a-pentamethyl-icosahydro-cyclopenta[a]chrysene-3a-carboxylic acid], for which the IC50 is above 175 µM.

Regarding `C=C(C)[C@@H]1CC[C@]2(C(=O)O)CC[C@]3(C)[C@H](CC[C@@H]4[C@@]5(C)CC[C@H](OC(=O)C(C)(C)CC(=O)O)C(C)(C)[C@@H]5CC[C@]43C)[C@@H]12` [(1R,3aS,5aR,5bR,7aR,9S,11aR,11bR,13aR,13bR)-9-(3-carboxy-2,2-dimethylpropanoyloxy)-5a,5b,8,8,11a-pentamethyl-1-(prop-1-en-2-yl)icosahydro-1H-cyclopenta[a]chrysene-3a-carboxylic acid], the concentration for half-maximal inhibition (IC50) is above 171 µM.

For `CC(C)[C@@H]1CC[C@]2(C(=O)O)CC[C@]3(C)[C@H](CC[C@@H]4[C@@]5(C)CC[C@H](OC(=O)COCC(=O)O)C(C)(C)[C@@H]5CC[C@]43C)[C@@H]12` [(1S,3aS,5aR,5bR,7aR,9S,11aR,11bR,13aR,13bR)-9-(2-Carboxymethoxy-acetoxy)-1-isopropyl-5a,5b,8,8,11a-pentamethyl-icosahydro-cyclopenta[a]chrysene-3a-carboxylic acid], the concentration for half-maximal inhibition (IC50) was above 174 µM.

As to `CC(C)[C@@H]1CC[C@]2(C(=O)O)CC[C@]3(C)[C@H](CC[C@@H]4[C@@]5(C)CC[C@H](O)C(C)(C)[C@@H]5CC[C@]43C)[C@@H]12` [Dihydrobetulinic acid], the IC50 was above 218 µM.
